Numbers after ± are expanded uncertainties.
Experiment: xn = mol fraction of the nth substance listed
Conditions: 93.2 kPa, Liquid; for speed of sound: Frequency=3 MHz, Sing-around technique in a fixed-path interferometer; for mass density: Vibrating tube method

CCCC(=O)[O-].CCCC[NH3+] [n-butylammonium butanoate] + CCCO
Conditions	mass density, 293.15 K [kg/m3]	mass density, 298.15 K [kg/m3]	mass density, 303.15 K [kg/m3]	mass density, 308.15 K [kg/m3]	mass density, 313.15 K [kg/m3]	speed of sound, 293.15 K [m/s]	speed of sound, 298.15 K [m/s]	speed of sound, 303.15 K [m/s]	speed of sound, 308.15 K [m/s]	speed of sound, 313.15 K [m/s]
x1 = 0.0507	820.248 ± 4	816.288 ± 4	812.295 ± 4	808.263 ± 4	804.187 ± 4	1245.5 ± 5.3	1228.1 ± 5.3	1210.8 ± 5.3	1193.6 ± 5.3	1176.7 ± 5.3
x1 = 0.1012	834.054 ± 4	830.162 ± 4	826.227 ± 4	822.265 ± 4	818.288 ± 4	1264 ± 5.3	1246.6 ± 5.3	1229.4 ± 5.3	1212.2 ± 5.3	1195.2 ± 5.3
x1 = 0.1518	845.668 ± 4	841.844 ± 4	837.991 ± 4	834.106 ± 4	830.181 ± 4	1280 ± 5.3	1262.6 ± 5.3	1245.3 ± 5.3	1228.2 ± 5.3	1211.2 ± 5.3
x1 = 0.202	855.786 ± 4	852.003 ± 4	848.218 ± 4	844.396 ± 4	840.532 ± 4	1294.2 ± 5.3	1276.9 ± 5.3	1259.7 ± 5.3	1242.6 ± 5.3	1225.6 ± 5.3
x1 = 0.2517	864.424 ± 4	860.713 ± 4	856.978 ± 4	853.215 ± 4	849.411 ± 4	1306.7 ± 5.3	1289.3 ± 5.3	1272.1 ± 5.3	1255 ± 5.3	1238.2 ± 5.3
x1 = 0.3003	871.964 ± 4	868.301 ± 4	864.616 ± 4	860.902 ± 4	857.161 ± 4	1317.9 ± 5.3	1300.6 ± 5.3	1283.4 ± 5.3	1266.4 ± 5.3	1249.5 ± 5.3
x1 = 0.3334	876.626 ± 4	872.985 ± 4	869.329 ± 4	865.652 ± 4	861.938 ± 4	1325 ± 5.3	1307.7 ± 5.3	1290.6 ± 5.3	1273.6 ± 5.3	1256.7 ± 5.3
x1 = 0.401	885.2 ± 4	881.621 ± 4	878.022 ± 4	874.402 ± 4	870.759 ± 4	1338.2 ± 5.3	1321 ± 5.3	1303.9 ± 5.3	1286.9 ± 5.3	1270.2 ± 5.3
x1 = 0.4478	890.446 ± 4	886.895 ± 4	883.335 ± 4	879.756 ± 4	876.162 ± 4	1346.9 ± 5.3	1329.7 ± 5.3	1312.6 ± 5.3	1295.7 ± 5.3	1279 ± 5.3
x1 = 0.5001	895.864 ± 4	892.351 ± 4	888.828 ± 4	885.287 ± 4	881.725 ± 4	1355.5 ± 5.3	1338.3 ± 5.3	1321.2 ± 5.3	1304.4 ± 5.3	1287.8 ± 5.3
x1 = 0.5465	900.176 ± 4	896.692 ± 4	893.2 ± 4	889.694 ± 4	886.168 ± 4	1362.8 ± 5.3	1345.6 ± 5.3	1328.5 ± 5.3	1311.7 ± 5.3	1295.1 ± 5.3
x1 = 0.5992	904.688 ± 4	901.241 ± 4	897.78 ± 4	894.304 ± 4	890.806 ± 4	1370.7 ± 5.3	1353.4 ± 5.3	1336.4 ± 5.3	1319.6 ± 5.3	1303 ± 5.3
x1 = 0.6495	908.619 ± 4	905.208 ± 4	901.781 ± 4	898.337 ± 4	894.874 ± 4	1377.9 ± 5.3	1360.5 ± 5.3	1343.5 ± 5.3	1326.6 ± 5.3	1310.1 ± 5.3
x1 = 0.6928	911.76 ± 4	908.377 ± 4	904.977 ± 4	901.561 ± 4	898.121 ± 4	1384 ± 5.3	1366.5 ± 5.3	1349.4 ± 5.3	1332.5 ± 5.3	1316 ± 5.3
x1 = 0.7484	915.581 ± 4	912.23 ± 4	908.868 ± 4	905.487 ± 4	902.083 ± 4	1392 ± 5.3	1374.2 ± 5.3	1356.9 ± 5.3	1340 ± 5.3	1323.4 ± 5.3
x1 = 0.7906	918.267 ± 4	914.932 ± 4	911.595 ± 4	908.238 ± 4	904.859 ± 4	1398.1 ± 5.3	1380.1 ± 5.3	1362.6 ± 5.3	1345.6 ± 5.3	1328.9 ± 5.3
x1 = 0.8695	922.883 ± 4	919.552 ± 4	916.236 ± 4	912.916 ± 4	909.578 ± 4	1409.8 ± 5.3	1391.2 ± 5.3	1373.3 ± 5.3	1355.9 ± 5.3	1339 ± 5.3
x1 = 0.9443	926.755 ± 4	923.441 ± 4	920.127 ± 4	916.826 ± 4	913.524 ± 4	1420 ± 5.3	1400.6 ± 5.3	1382 ± 5.3	1364.2 ± 5.3	1347 ± 5.3
x1 = 1	928.794 ± 4	925.509 ± 4	922.217 ± 4	918.88 ± 4	915.567 ± 4	1431.5 ± 5.3	1410.3 ± 5.3	1390.4 ± 5.3	1371.5 ± 5.3	1353.6 ± 5.3

CCCC(=O)[O-].CCCC[NH3+] [n-butylammonium butanoate] + CCO
Conditions	mass density, 293.15 K [kg/m3]	mass density, 298.15 K [kg/m3]	mass density, 303.15 K [kg/m3]	mass density, 308.15 K [kg/m3]	mass density, 313.15 K [kg/m3]	speed of sound, 293.15 K [m/s]	speed of sound, 298.15 K [m/s]	speed of sound, 303.15 K [m/s]	speed of sound, 308.15 K [m/s]	speed of sound, 313.15 K [m/s]
x1 = 0.0512	814.143 ± 4	810.002 ± 4	805.829 ± 4	801.613 ± 4	797.355 ± 4	1199 ± 5.2	1182 ± 5.2	1165 ± 5.2	1148.2 ± 5.2	1131.5 ± 5.2
x1 = 0.1009	832.02 ± 4	828.016 ± 4	823.986 ± 4	819.912 ± 4	815.802 ± 4	1227.7 ± 5.2	1210.7 ± 5.2	1193.8 ± 5.2	1177 ± 5.2	1160.4 ± 5.2
x1 = 0.1503	846.238 ± 4	842.335 ± 4	838.406 ± 4	834.444 ± 4	830.445 ± 4	1251.6 ± 5.2	1234.6 ± 5.2	1217.8 ± 5.2	1201.1 ± 5.2	1184.5 ± 5.2
x1 = 0.1994	858.208 ± 4	854.396 ± 4	850.551 ± 4	846.681 ± 4	842.738 ± 4	1272.7 ± 5.2	1255.7 ± 5.2	1238.9 ± 5.2	1222.2 ± 5.2	1205.7 ± 5.2
x1 = 0.2504	868.474 ± 4	864.721 ± 4	860.912 ± 4	857.053 ± 4	853.31 ± 4	1291.1 ± 5.2	1274.2 ± 5.2	1257.4 ± 5.2	1240.8 ± 5.2	1224.2 ± 5.2
x1 = 0.2982	876.405 ± 4	872.722 ± 4	869.017 ± 4	865.27 ± 4	861.491 ± 4	1306 ± 5.2	1289.1 ± 5.2	1272.3 ± 5.2	1255.7 ± 5.2	1239.2 ± 5.2
x1 = 0.3495	883.788 ± 4	880.151 ± 4	876.505 ± 4	872.836 ± 4	869.15 ± 4	1320 ± 5.2	1303.1 ± 5.2	1286.3 ± 5.2	1269.7 ± 5.2	1253.3 ± 5.2
x1 = 0.399	890.046 ± 4	886.464 ± 4	882.862 ± 4	879.217 ± 4	875.544 ± 4	1332.2 ± 5.2	1315.3 ± 5.2	1298.5 ± 5.2	1282 ± 5.2	1265.5 ± 5.2
x1 = 0.4372	894.397 ± 4	890.847 ± 4	887.284 ± 4	883.704 ± 4	880.105 ± 4	1340.7 ± 5.2	1323.8 ± 5.2	1307.1 ± 5.2	1290.5 ± 5.2	1274.1 ± 5.2
x1 = 0.4992	900.42 ± 4	896.912 ± 4	893.396 ± 4	889.863 ± 4	886.306 ± 4	1352.8 ± 5.2	1335.9 ± 5.2	1319.2 ± 5.2	1302.6 ± 5.2	1286.2 ± 5.2
x1 = 0.547	904.601 ± 4	901.123 ± 4	897.636 ± 4	894.139 ± 4	890.621 ± 4	1361.5 ± 5.2	1344.5 ± 5.2	1327.7 ± 5.2	1311.2 ± 5.2	1294.8 ± 5.2
x1 = 0.6017	908.757 ± 4	905.303 ± 4	901.834 ± 4	898.348 ± 4	894.849 ± 4	1370.4 ± 5.2	1353.3 ± 5.2	1336.5 ± 5.2	1319.9 ± 5.2	1303.6 ± 5.2
x1 = 0.649	912.071 ± 4	908.66 ± 4	905.237 ± 4	901.798 ± 4	898.346 ± 4	1377.6 ± 5.2	1360.5 ± 5.2	1343.6 ± 5.2	1326.9 ± 5.2	1310.6 ± 5.2
x1 = 0.6917	914.76 ± 4	911.378 ± 4	907.983 ± 4	904.574 ± 4	901.145 ± 4	1384 ± 5.2	1366.7 ± 5.2	1349.7 ± 5.2	1333 ± 5.2	1316.6 ± 5.2
x1 = 0.7436	917.782 ± 4	914.431 ± 4	911.071 ± 4	907.692 ± 4	904.29 ± 4	1391.5 ± 5.2	1373.9 ± 5.2	1356.7 ± 5.2	1339.9 ± 5.2	1323.4 ± 5.2
x1 = 0.7901	920.284 ± 4	916.95 ± 4	913.616 ± 4	910.264 ± 4	906.897 ± 4	1398.2 ± 5.3	1380.2 ± 5.3	1362.8 ± 5.2	1345.9 ± 5.2	1329.3 ± 5.2
x1 = 0.8493	923.093 ± 4	919.763 ± 4	916.446 ± 4	913.124 ± 4	909.786 ± 4	1406.5 ± 5.3	1388 ± 5.3	1370.2 ± 5.3	1352.9 ± 5.3	1336.2 ± 5.3
x1 = 0.8904	924.887 ± 4	921.547 ± 4	918.232 ± 4	914.921 ± 4	911.604 ± 4	1412.5 ± 5.3	1393.5 ± 5.3	1375.2 ± 5.3	1357.7 ± 5.3	1340.7 ± 5.3
x1 = 0.94	927.026 ± 4	923.73 ± 4	920.395 ± 4	917.09 ± 4	913.789 ± 4	1420.7 ± 5.3	1400.8 ± 5.3	1382 ± 5.3	1364 ± 5.3	1346.7 ± 5.3
x1 = 1	928.794 ± 4	925.509 ± 4	922.217 ± 4	918.88 ± 4	915.567 ± 4	1431.5 ± 5.3	1410.3 ± 5.3	1390.4 ± 5.3	1371.5 ± 5.3	1353.6 ± 5.3

— the NIST ThermoML archive (doi:10.1016/j.jct.2016.09.007)
